Laboratory results from ChEMBL document CHEMBL1201862, “PubChem BioAssay data set” (2004).
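48-hour exposure; five concentrations; linearly interpolated endpoints. GI50 is the concentration that inhibits growth by half.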 Active and inactive are the calls of the source. No stated cut-off is given here; in the data, active = GI50 up to about 1.1 µM and inactive = higher.

What was measured:
Assay in all cases: growth of human tumour cells (NCI), 48 h
EKVX = system: EKVX
HCT-116 = system: HCT-116
IGROV-1 = system: IGROV-1
KM12 = system: KM12
LOX IMVI = system: LOX IMVI
NCI-H226 = system: NCI-H226
OVCAR-3 = system: OVCAR-3
OVCAR-4 = system: OVCAR-4
SF-539 = system: SF-539
SK-OV-3 = system: SK-OV-3
SN12C = system: SN12C
SR = system: SR
UACC-62 = system: UACC-62
SK-MEL-2 = system: SK-MEL-2
CAKI-1 = system: CAKI-1

Measured: GI50

O=C1CC2C(=O)N(Cc3ccccc3)C1C=C2S(=O)(=O)c1ccccc1 (stereo unspecified)
inactive: EKVX > 100 µM | HCT-116 > 100 µM | IGROV-1 > 100 µM | KM12 > 100 µM | LOX IMVI > 100 µM | NCI-H226 > 100 µM | OVCAR-3 > 100 µM | OVCAR-4 > 100 µM | SF-539 > 100 µM | SK-OV-3 > 100 µM | SN12C > 100 µM | SR > 100 µM | UACC-62 > 100 µM

C=C1C[C@]23CCC4C(C)(C)C(=O)CC[C@]4(C)C2C[C@H]1C(O)C3=O (stereo partly specified)
inactive: EKVX > 75 µM | IGROV-1 > 75 µM | KM12 > 75 µM | LOX IMVI > 75 µM | NCI-H226 > 75 µM | OVCAR-3 > 75 µM | OVCAR-4 > 75 µM | SF-539 > 75 µM | SK-MEL-2 > 75 µM | SK-OV-3 > 75 µM | SN12C > 75 µM | SR > 75 µM | UACC-62 > 75 µM

CCc1cccc(CC)c1NC(=O)CC1SC(N)=NC1=O (stereo unspecified)
inactive: EKVX > 100 µM | HCT-116 > 100 µM | IGROV-1 > 100 µM | KM12 > 100 µM | LOX IMVI > 100 µM | NCI-H226 > 100 µM | OVCAR-3 > 100 µM | OVCAR-4 > 100 µM | SF-539 > 100 µM | SK-MEL-2 > 100 µM | SK-OV-3 > 100 µM | SN12C > 100 µM | SR 97.5 µM | UACC-62 > 100 µM

C=C1CC(c2ccc(O)c(OC)c2)Oc2c(OC)cccc21 (stereo unspecified)
inactive: CAKI-1 34.8 µM | EKVX 40.6 µM | HCT-116 31.2 µM | IGROV-1 36 µM | KM12 33.7 µM | NCI-H226 > 100 µM | OVCAR-3 33.9 µM | OVCAR-4 54 µM | SF-539 21.3 µM | SK-OV-3 > 100 µM | SN12C 34.4 µM | SR 19.7 µM | UACC-62 35.4 µM

CC1(C)CCc2cc3c(cc2O1)OCC1c2cc4c(cc2OC31)OCO4 (stereo unspecified)
inactive: CAKI-1 > 100 µM | EKVX > 100 µM | HCT-116 > 100 µM | IGROV-1 > 100 µM | KM12 > 100 µM | LOX IMVI > 100 µM | NCI-H226 > 100 µM | OVCAR-3 > 100 µM | OVCAR-4 > 100 µM | SF-539 > 100 µM | SK-OV-3 > 100 µM | SN12C > 100 µM | SR > 100 µM | UACC-62 > 100 µM

CCOC(=O)Cc1csc(Nc2ccc(OCC)cc2)n1
inactive: EKVX > 100 µM | HCT-116 > 100 µM | IGROV-1 > 100 µM | KM12 > 100 µM | NCI-H226 > 100 µM | OVCAR-3 86.3 µM | OVCAR-4 > 100 µM | SF-539 > 100 µM | SK-MEL-2 > 100 µM | SN12C > 100 µM | SR 73.8 µM

Cc1cccc(C)c1NC(=O)CCCC(=O)C1/C(=N/NC(=O)CC#N)CCC/C1=N\NC(=O)CC#N (stereo unspecified)
inactive: CAKI-1 > 100 µM | EKVX > 100 µM | HCT-116 > 100 µM | IGROV-1 > 100 µM | KM12 > 100 µM | NCI-H226 > 100 µM | OVCAR-3 > 100 µM | OVCAR-4 > 100 µM | SF-539 > 100 µM | SK-MEL-2 > 100 µM | SK-OV-3 > 100 µM | SN12C > 100 µM | SR > 100 µM | UACC-62 > 100 µM

Cc1cc2c3ccccc3n(C)c2c2c1C(=O)c1ccccc1C2=O
inactive: CAKI-1 21.9 µM | EKVX 24.3 µM | HCT-116 14.8 µM | IGROV-1 19.4 µM | KM12 28.2 µM | NCI-H226 10.8 µM | OVCAR-3 13.4 µM | OVCAR-4 17.8 µM | SF-539 > 100 µM | SK-MEL-2 20 µM | SK-OV-3 22.2 µM | SN12C 19.2 µM | SR 6.24 µM | UACC-62 20.8 µM
